Data taken from patent US20070117743A1, “New antitumoral compounds” (priority 2003, published 2007).
Where a SMILES comes first, the peptide text is derived from it. Bridges are numbered along the chain shown (N, C = ends). [ ]: non-standard residue; d: D form. The star is where a group is joined. d(aIle) = CC[C@H](C)[C@@H](N)C(=O)O; d(aThr) = C[C@@H](O)[C@@H](N)C(=O)O; hCha = N[C@@H](CCC1CCCCC1)C(=O)O; Hexanoyl(5-Me) = CC(C)CCCC(=O)*; dCha = N[C@H](CC1CCCCC1)C(=O)O; Orn = NCCC[C@H](N)C(=O)O; Dhb = C/C=C(\N)C(=O)O

How the values were obtained:
Format in all cases: cell-based, human
[1] = test system: K-562; assay: SRB colorimetric assay of cell growth and viability, K-562; conditions: 48 hours exposure; for CC50: read-out: LC50 K-562
[2] = test system: HeLa; assay: SRB colorimetric assay of cell growth and viability, HeLa; conditions: 48 hours exposure; for CC50: read-out: LC50 HELA
[3] = test system: LoVo; assay: SRB colorimetric assay of cell growth and viability, LoVo; conditions: 48 hours exposure; for CC50: read-out: LC50 LOVO
[4] = test system: LoVo-Dox; assay: SRB colorimetric assay of cell growth and viability, LoVo-Dox; conditions: 48 hours exposure; for CC50: read-out: LC50 LOVO-DOX
Procedure, shortened: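 Tumor cells are continuously exposed to sample for 48 hours, with vehicle DMSO:EtOH:PBS (0.5:0.5:99), after an 18-hour drug-free attachment period. Bound SRB, measured at 490 nm, reflects cell mass; GI, TGI and LC are derived from triplicate means.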

[5] = test system: HT-29; assay: SRB colorimetric assay of cell growth and viability, HT-29; conditions: 48 hours exposure; for GI50: read-out: GI50 HT-29; for CC50: read-out: LC50 HT-29
[6] = test system: IGROV-1; assay: SRB colorimetric assay of cell growth and viability, IGROV-1; conditions: 48 hours exposure
[7] = test system: PANC-1; assay: SRB colorimetric assay of cell growth and viability, PANC-1; conditions: 48 hours exposure; for CC50: read-out: LC50 PANC-1
[8] = test system: A-549; assay: SRB colorimetric assay of cell growth and viability, A-549; conditions: 48 hours exposure; for GI50: read-out: GI50 A-549; for CC50: read-out: LC50 A-549
[9] = test system: SK-BR-3; assay: SRB colorimetric assay of cell growth and viability, SK-BR-3; conditions: 48 hours exposure
[10] = test system: SK-MEL-28; assay: SRB colorimetric assay of cell growth and viability, SK-MEL-28; conditions: 48 hours exposure; for CC50: read-out: LC50 MEL-28
[11] = test system: HeLa-APL; assay: SRB colorimetric assay of cell growth and viability, HeLa-APL; conditions: 48 hours exposure; for CC50: read-out: LC50 HELA-APL
[12] = test system: IGROV-ET; assay: SRB colorimetric assay of cell growth and viability, IGROV-ET; conditions: 48 hours exposure; for CC50: read-out: LC50 IGROV-ET
[13] = test system: LNCaP; assay: SRB colorimetric assay of cell growth and viability, LNCaP; conditions: 48 hours exposure; for GI50: read-out: GI50 LN-caP; for CC50: read-out: LC50 LN-caP
[14] = test system: DU-145; assay: SRB colorimetric assay of cell growth and viability, DU-145; conditions: 48 hours exposure

Compound: [(c/t)-4-Me-cHexa^14]-KF [Compound 14]
- GI50 [1]: 2.02 µM
- TGI K-562 [1]: 3.58E−06 Molar
- CC50 [1]: 6.32 µM
- GI50 [2]: 0.779 µM
- TGI HELA [2]: 1.84E−06 Molar
- CC50 [2]: 4.37 µM
- GI50 [3]: 0.0993 µM
- TGI LOVO [3]: 2.34E−07 Molar
- CC50 [3]: 0.55 µM
- GI50 [4]: 0.144 µM
- TGI LOVO-DOX [4]: 2.88E−07 Molar
- CC50 [4]: 0.576 µM
- TGI HT-29 [5]: 4.22E−07 Molar
- GI50 [5]: 0.189 µM
- CC50 [5]: 1.83 µM
- GI50 [6]: 0.382 µM
- LC50 (concentration causing 50% net cell killing) [6]: 3.47 µM
- TGI IGROV [6]: 1.22E−06 Molar
- GI50 [7]: 2.01 µM
- TGI PANC-1 [7]: 6.71E−06 Molar
- CC50 [7]: 6.71 µM
- TGI A-549 [8]: 2.15E−06 Molar
- GI50 [8]: 0.933 µM
- CC50 [8]: 4.95 µM
- GI50 [9]: 0.152 µM
- LC50 [9]: 0.657 µM
- TGI SK-BR-3 [9]: 3.17E−07 Molar
- GI50 [10]: 0.886 µM
- TGI MEL-28 [10]: 1.89E−06 Molar
- CC50 [10]: 4.01 µM
- GI50 [11]: 0.611 µM
- TGI HELA-APL [11]: 1.72E−06 Molar
- CC50 [11]: 4.56 µM
- GI50 [12]: 0.846 µM
- TGI IGROV-ET [12]: 1.94E−06 Molar
- CC50 [12]: 4.47 µM
- TGI LN-caP [13]: 2.87E−06 Molar
- GI50 [13]: 1.34 µM
- CC50 [13]: 6.11 µM
- GI50 [14]: 0.612 µM
- LC50 (concentration causing 50% net cell kill) [14]: 3.36 µM
- TGI DU-145 [14]: 1.48E−06 Molar

Compound: C/C=C1\NC(=O)[C@H](Cc2ccccc2)NC(=O)[C@@H](C(C)C)NC(=O)[C@@H]([C@@H](C)CC)NC(=O)[C@H](NC(=O)[C@H](NC(=O)[C@H](CCCN)NC(=O)[C@H]2CCCN2C(=O)[C@H](NC(=O)[C@@H](NC(=O)[C@@H](NC(=O)[C@H](NC(=O)CCCC(C)C)C(C)C)[C@@H](C)O)C(C)C)C(C)C)[C@@H](C)CC)[C@H](C)OC(=O)[C@H](C(C)C)NC1=O [Compound 2, [D-Thr^6]-KF]
- GI50 [1]: ≥ 6.77 µM
- TGI K-562 [1]: 6.77E−06 Molar
- CC50 [1]: ≥ 6.77 µM
- GI50 [2]: ≥ 6.77 µM
- TGI HELA [2]: 6.77E−06 Molar
- CC50 [2]: ≥ 6.77 µM
- GI50 [3]: ≥ 6.77 µM
- TGI LOVO [3]: 6.77E−06 Molar
- CC50 [3]: ≥ 6.77 µM
- GI50 [4]: 3.06 µM
- TGI LOVO-DOX [4]: 6.77E−06 Molar
- CC50 [4]: ≥ 6.77 µM
- TGI HT-29 [5]: 6.77E−06 Molar
- GI50 [5]: ≥ 6.77 µM
- CC50 [5]: ≥ 6.77 µM
- GI50 [6]: 1.99 µM
- LC50 (concentration causing 50% net cell killing) [6]: ≥ 6.77 µM
- TGI IGROV [6]: 5.33E−06 Molar
- GI50 [7]: ≥ 6.77 µM
- TGI PANC-1 [7]: 6.77E−06 Molar
- CC50 [7]: ≥ 6.77 µM
- TGI A-549 [8]: 6.77E−06 Molar
- GI50 [8]: ≥ 6.77 µM
- CC50 [8]: ≥ 6.77 µM
- GI50 [9]: 4.47 µM
- LC50 [9]: ≥ 6.77 µM
- TGI SK-BR-3 [9]: 6.77E−06 Molar
- GI50 [10]: ≥ 6.77 µM
- TGI MEL-28 [10]: 6.77E−06 Molar
- CC50 [10]: ≥ 6.77 µM
- GI50 [11]: ≥ 6.77 µM
- TGI HELA-APL [11]: 6.77E−06 Molar
- CC50 [11]: ≥ 6.77 µM
- GI50 [12]: 1.6 µM
- TGI IGROV-ET [12]: 3.80E−06 Molar
- CC50 [12]: ≥ 6.77 µM
- TGI LN-caP [13]: 6.77E−06 Molar
- GI50 [13]: 2.13 µM
- CC50 [13]: ≥ 6.77 µM
- GI50 [14]: 5.29 µM
- LC50 (concentration causing 50% net cell kill) [14]: ≥ 6.77 µM
- TGI DU-145 [14]: 6.77E−06 Molar

Compound: C/C=C1\NC(=O)[C@H](Cc2ccccc2)NC(=O)[C@@H](C(C)C)NC(=O)[C@@H]([C@@H](C)CC)NC(=O)[C@H](NC(=O)[C@H](NC(=O)[C@H](CCCN)NC(=O)[C@H]2CCCN2C(=O)[C@H](NC(=O)[C@H](CCC(=O)O)NC(=O)[C@@H](NC(=O)[C@H](NC(=O)CCCC(C)C)C(C)C)[C@@H](C)O)C(C)C)[C@@H](C)CC)[C@@H](C)OC(=O)[C@H](C(C)C)NC1=O [Compound 51, [Glu^11]-KF] ({Hexanoyl(5-Me)}-[dV]TE[dV][dP][Orn][d(aIle)][d(aThr)][d(aIle)][dV]F[Dhb]V; ester 8-C)
- GI50 [1]: 6.63 µM
- TGI K-562 [1]: 6.63E−06 Molar
- CC50 [1]: 6.63 µM
- GI50 [2]: 6.63 µM
- TGI HELA [2]: 6.63E−06 Molar
- CC50 [2]: 6.63 µM
- GI50 [3]: 6.63 µM
- TGI LOVO [3]: 6.63E−06 Molar
- CC50 [3]: 6.63 µM
- GI50 [4]: 6.63 µM
- TGI LOVO-DOX [4]: 6.63E−06 Molar
- CC50 [4]: 6.63 µM
- TGI HT-29 [5]: 6.63E−06 Molar
- GI50 [5]: 6.63 µM
- CC50 [5]: 6.63 µM
- GI50 [6]: 6.63 µM
- LC50 (concentration causing 50% net cell killing) [6]: 6.63 µM
- TGI IGROV [6]: 6.63E−06 Molar
- GI50 [7]: 6.63 µM
- TGI PANC-1 [7]: 6.63E−06 Molar
- CC50 [7]: 6.63 µM
- TGI A-549 [8]: 6.63E−06 Molar
- GI50 [8]: 6.63 µM
- CC50 [8]: 6.63 µM
- GI50 [9]: 6.63 µM
- LC50 [9]: 6.63 µM
- TGI SK-BR-3 [9]: 6.63E−06 Molar
- GI50 [10]: 6.63 µM
- TGI MEL-28 [10]: 6.63E−06 Molar
- CC50 [10]: 6.63 µM
- GI50 [11]: 6.63 µM
- TGI HELA-APL [11]: 6.63E−06 Molar
- CC50 [11]: 6.63 µM
- GI50 [12]: 6.63 µM
- TGI IGROV-ET [12]: 6.63E−06 Molar
- CC50 [12]: 6.63 µM
- TGI LN-caP [13]: 6.63E−06 Molar
- GI50 [13]: 6.63 µM
- CC50 [13]: 6.63 µM
- GI50 [14]: 6.63 µM
- LC50 (concentration causing 50% net cell kill) [14]: 6.63 µM
- TGI DU-145 [14]: 6.63E−06 Molar

Compound: C/C=C1\NC(=O)[C@H](Cc2ccccc2)NC(=O)[C@@H](C(C)C)NC(=O)[C@@H]([C@@H](C)CC)NC(=O)[C@H](NC(=O)[C@H](NC(=O)[C@H](CCCN)NC(=O)[C@H]2CCCN2C(=O)[C@H](NC(=O)[C@H](CCC2CCCCC2)NC(=O)[C@@H](NC(=O)[C@@H](CC2CCCCC2)NC(=O)CCCC(C)C)[C@@H](C)O)C(C)C)[C@@H](C)CC)[C@@H](C)OC(=O)[C@H](C(C)C)NC1=O [Compound 10, [hCh^11, D-Cha^13]-KF] ({Hexanoyl(5-Me)}-[dCha]T[hCha][dV][dP][Orn][d(aIle)][d(aThr)][d(aIle)][dV]F[Dhb]V; ester 8-C)
- GI50 [1]: 6.25 µM
- TGI K-562 [1]: 6.25E−06 Molar
- CC50 [1]: 6.25 µM
- GI50 [2]: 2.67 µM
- TGI HELA [2]: 6.25E−06 Molar
- CC50 [2]: 6.25 µM
- GI50 [3]: 1.12 µM
- TGI LOVO [3]: 2.27E−06 Molar
- CC50 [3]: 4.59 µM
- GI50 [4]: 0.537 µM
- TGI LOVO-DOX [4]: 1.30E−06 Molar
- CC50 [4]: 2.94 µM
- TGI HT-29 [5]: 1.96E−06 Molar
- GI50 [5]: 1.06 µM
- CC50 [5]: 3.58 µM
- GI50 [6]: 1.99 µM
- LC50 (concentration causing 50% net cell killing) [6]: 6.25 µM
- TGI IGROV [6]: 3.84E−06 Molar
- TGI A-549 [8]: 6.25E−06 Molar
- GI50 [8]: 3.56 µM
- CC50 [8]: 6.25 µM
- GI50 [9]: 1.31 µM
- LC50 [9]: 4.16 µM
- TGI SK-BR-3 [9]: 2.32E−06 Molar
- GI50 [10]: 3.1 µM
- TGI MEL-28 [10]: 6.25E−06 Molar
- CC50 [10]: 6.25 µM
- GI50 [11]: 3.67 µM
- TGI HELA-APL [11]: 6.25E−06 Molar
- CC50 [11]: 6.25 µM
- GI50 [12]: 2.23 µM
- TGI IGROV-ET [12]: 4.56E−06 Molar
- CC50 [12]: 6.25 µM
- TGI LN-caP [13]: 6.25E−06 Molar
- GI50 [13]: 4.89 µM
- CC50 [13]: 6.25 µM
- GI50 [14]: 4.29 µM
- LC50 (concentration causing 50% net cell kill) [14]: 6.25 µM
- TGI DU-145 [14]: 6.25E−06 Molar
